The source of these data is patent publication US4772586A, “Novel derivatives of arginine vasopressin antagonists” (Medical College of Ohio, priority 1986, dated 1988).

*1 amine or outer side, *2 acyl side, *3 side chain or, on linkers, in order; H or OH if unused. Where a SMILES comes first, the peptide text is derived from it. Bridges are numbered along the chain shown (N, C = ends). [ ]: non-standard residue; d: D form. The star is where a group is joined. X1 = O=C(CC1(S[*:2])CCCCC1)[*:1]; NHCH2CH2OH = OCCN*; Sar = CNCC(=O)O

In test [1] the test system is antidiuretic response to arginine vasopressin. Nature of the test: Antagonism of the antidiuretic response to arginine vasopressin (Anti-ADH). The class given is in vivo, rats. The conditions noted are these: for Anti-ADH Potency pA2: estimated in vivo pA2; for Anti-ADH pA2: Table 1, estimated in vivo pA2 = negative log of effective dose divided by volume of distribution (67 ml/kg). Here is the method: Activity as antidiuretic agonists was determined by intravenous injection of the compounds being evaluated in ethanol-anesthesized water-loaded rats in accordance with Sawyer, Endocrinology, vol. 63 (1958) at 694. Antagonism of the antidiuretic response to subsequent injections of arginine vasopressin was tested by the method of Sawyer et al., Science, vol. 212 (1981) at 49.
(§1) Antagonistic potencies were determined and expressed as "effective doses" and pA2 values. The "effective dose" is defined as the dose (in nanomoles per kilogram) that reduces the response seen from 2x units of agonist injected 20 min after the dose of antagonist to the response with 1x units of agonist. Estimated in vivo "pA2 " values represent the negative logarithms of the effective doses, divided by the estimated volume of distribution (67 ml/kg).

In test [2] the test system is vasopressor response to arginine vasopressin. Description: Antagonism to the vasopressor response (Anti-VP). The note with it: estimated in vivo pA2; for Anti-VP pA2: Table 1. The class given is in vivo. On the procedure:
Antagonism to the vasopressor response was estimated in accordance with Dyckes et al., J. Med. Chem., vol. 17 (1974) at 969. The values are expressed as pA2 values, defined as in Schild et al., Br. J. Pharmacol., vol. 2 (1947) at 189.
as §1

Consider `CCOc1ccc(C[C@H]2NC(=O)CC3(CCCCC3)SSC[C@@H](C(=O)N3CCC[C@H]3C(=O)N[C@@H](CCCNC(=N)N)C(=O)NCCO)NC(=O)[C@H](CC(N)=O)NC(=O)[C@H]([C@@H](C)CC)NC(=O)[C@H](Cc3ccccc3)NC2=O)cc1` [[1-(beta-mercapto-beta,beta-cyclopentamethylenepropionic acid), 2-D-(O-ethyl)tyrosine, 4-isoleucine, 8-arginine-N-(beta-hydroxy)ethylamide, 9-desglycinamide] vasopressin] ([dY](Et)FINCPR-NHCH2CH2OH; linker N-5 via X1), for which, in test [1] (Table 4), the “Anti-ADH Potency pA2” value is on record as 7.82 ± 0.06. Further, the “Anti-VP Potency pA2” value in test [2] (Table 4, ^+ = mixed) is 7.89 ± 0.09.

As for `CC[C@H](C)[C@@H]1NC(=O)[C@H](Cc2ccccc2)NC(=O)[C@@H](Cc2ccccc2)NC(=O)CC2(CCCCC2)SSC[C@@H](C(=O)N2CCC[C@H]2C(=O)N[C@@H](CCCNC(=N)N)C(=O)NCCO)NC(=O)[C@H](CC(N)=O)NC1=O` [[1-(beta-mercapto-beta,beta-cyclopentamethylenepropionic acid), 2-D-phenylalanine, 4-isoleucine, 8-arginine-N-(beta-hydroxy)ethylamide, 9-desglycinamide] vasopressin] ([dF]FINCPR-NHCH2CH2OH; linker N-5 via X1), the “Anti-ADH Potency pA2” value in test [1] (Table 4) was 8.17 ± 0.10. The “Anti-VP Potency pA2” value in test [2] (Table 4, ^+ = mixed) was 7.45 ± 0.12.

As for `CCOc1ccc(C[C@H]2NC(=O)CC3(CCCCC3)SSC[C@@H](C(=O)N3CCC[C@H]3C(=O)N[C@@H](CCCNC(=N)N)C(=O)O)NC(=O)[C@H](CC(N)=O)NC(=O)[C@H](C(C)C)NC(=O)[C@H](Cc3ccccc3)NC2=O)cc1` [desGly(NH2)^9 d(CH2)5 [D-Tyr(Et)^2]VAVP, [1-(beta-mercapto-beta,beta-cyclopentamethylenepropionic acid), 2-D-(O-ethyl)tyrosine, 4-valine, 9-desglycinamide]-arginine vasopressin] ([dY](Et)FVNCPR-OH; linker N-5 via X1), the “Anti-ADH pA2” value in test [1] is 7.78 ± 0.03. Further, in test [2], the “Anti-VP pA2” value is on record as 7.77 ± 0.02.

Consider `CC[C@H](C)[C@@H]1NC(=O)[C@H](Cc2ccccc2)NC(=O)[C@@H](Cc2ccccc2)NC(=O)CC2(CCCCC2)SSC[C@@H](C(=O)N2CCC[C@H]2C(=O)N[C@@H](CCCNC(=N)N)C(=O)N[C@@H](Cc2ccccc2)C(N)=O)NC(=O)[C@H](CC(N)=O)NC1=O` [Phe(NH2), [1-(beta-mercapto-beta,beta-cyclopentamethylenepropionic acid), 2-D-phenylalanine, 4-isoleucine, 9-phenylalaninamide]-arginine vasopressin] ([dF]FINCPRF-NH2; linker N-5 via X1), for which the “Anti-ADH Potency pA2” value in test [1] (Table 2) is 7.69 ± 0.09. The “Anti-VP Potency pA2” value in test [2] (Table 2) was 7.28 ± 0.11.

Regarding `CC[C@H](C)[C@@H]1NC(=O)[C@H](Cc2ccccc2)NC(=O)[C@@H](Cc2ccccc2)NC(=O)CC2(CCCCC2)SSC[C@@H](C(=O)N2CCC[C@H]2C(=O)N[C@@H](CCCNC(=N)N)C(=O)NCC(=O)O)NC(=O)[C@H](CC(N)=O)NC1=O` [d(CH2)5 [D-Phe^2,Ile^ 4]AVP acid, [1-(beta-mercapto-beta,beta-cyclopentamethylenepropionic acid), 2-D-phenylalanine, 4-isoleucine, 9-glycine]-arginine vasopressin] ([dF]FINCPRG-OH; linker N-5 via X1), the “Anti-ADH pA2” value in test [1] is given as 7.11 ± 0.11. The “Anti-VP pA2” value in test [2] is reported as 6.94 ± 0.08.

With `CNC(=O)CN(C)C(=O)[C@H](CCCNC(=N)N)NC(=O)[C@@H]1CCCN1C(=O)[C@@H]1CSSC2(CCCCC2)CC(=O)N[C@@H](Cc2ccc(OC)cc2)C(=O)N[C@@H](Cc2ccccc2)C(=O)N[C@@H](CCC(N)=O)C(=O)N[C@@H](CC(N)=O)C(=O)N1` [d(CH2)5 [Tyr(Me)^2, Sar(NHMe)^9]AVP, [1-(beta-mercapto-beta,beta-cyclopentamethylenepropionic acid), 2-O-methyltyrosine, 9-sarcosine-N-methylamide]-arginine vasopressin] (Y(Me)FQNCPR[Sar]-NHMe; linker N-5 via X1), the “Anti-ADH Potency pA2” value in test [1] (Table 4) is recorded as ~ 5.5. In test [2] (Table 4, ^+ = mixed), the “Anti-VP Potency pA2” value is reported as 8.31 ± 0.03.
